Data: patent US20260355318A1, “MOLECULAR MACHINES FOR TREATMENT OF CANCER, FUNGAL INFECTIONS, OR BACTERIAL INFECTIONS” (priority 2022, published 2026)
In brackets after ≈: the same amount, converted by molar mass.

How the values were obtained:
A. baumannii [1] = experiment: G. mellonella burn wound infection model, A. baumannii; type: in vivo, Galleria mellonella; details: A. baumannii-infected G. mellonella, 1×MIC
Method: (§1) Animal studies were conducted in the burn wound model Galleria mellonella recently described (Maslova et al., 2020). […] Larvae were sorted into Petri dishes lined with Whatman filter paper (Fisher Scientific, Pittsburgh, PA) and stored at 4 ° C until use. The larval bodies were sterilized with 70% ethanol. The burn was generated using a soldering iron (Weller WE1010 ESD-Safe Digital 70-Watt Soldering Station, 120V, Weller Company, Easton, PA, USA) to achieve a consistent burn area of ≈2 mm^2 in the middle section of the back of larvae. This location was chosen so the wound could be easily visualized without having to physically manipulate the larvae. Immediately post-burn, the wound was inoculated with 10 μL of 1:10 dilution of an overnight culture of A. baumannii or S. aureus. […] In order to minimize any potential temperature effects, a constant flow of 0.2 μm pore-size-filtered air was provided to the surface of the worm. Dark 1% DMSO controls were also included. The mortality of larvae post-treatment was monitored for up to 7 days. Mortality was recorded by complete melanization of the larval body and complete loss of motility. A brief overview of the protocol is schematically depicted in FIG. 44A. Work in Galleria mellonella was reviewed and approved by the Office of Sponsored Projects and Research Compliance (SPARC) of Rice University.

A. baumannii [2] = experiment: MIC, A. baumannii; type: cell-based, Acinetobacter baumannii; details: A. baumannii, broth microdilution
Method: (§2) The appropriate volume of an MM stock at 8 mM necessary to achieve a concentration ranging from 0.3125 to 40 μM was pipetted into a 2 mL microcentrifuge tube to which 1 mL of cell suspension prepared as previously described was added. Corresponding negative controls (DMSO only) were prepared in the same way. The mixture was gently mixed by pipetting and incubated in the dark at 30 or 37 ° C, depending on the strain, for 30 min with agitation (220 rpm). Afterward, MM- or DMSO-treated cells were dispensed in one well of a 24-well plate positioned in the center of the light beam (405 nm LED Light, Prizmatix, UHP—F-5-405) placed at the appropriate distance necessary to achieve the desired light intensity of 304 mW cm-2, 146 mW cm2 or 87 mW cm2, as measured with a handheld digital power meter console coupled to an S415C thermal power sensor head (Thorlabs, Newton, MA, USA). The temperature during irradiation was monitored using a thermocouple probe (Model SC-TT-K-30-36-PP; Omega Engineering, Inc., Stanford, CT, USA). Samples were agitated during irradiation. Dark controls were prepared as previously described except that no irradiation was provided.
(§3) For MIC determination, samples treated with a range of concentrations of the different MM, as described above and were irradiated one at a time for 5 min at 146 mW cm^−2 (43.8 J cm^−2), after which irradiated aliquots were collected and inoculated into 1 mL MHB in a 2 mL microcentrifuge tube. Samples were incubated overnight at 30 or 37 ° C, depending on the strain, without agitation. Corresponding non-irradiated samples and negative controls (without bacteria) were also included. The following day, cultures were inspected for growth and the MIC was identified. The experimental procedure used to determine the MIC of visible light-activated MMs is schematically depicted in FIG. 26.

C. albicans = experiment: MIC, visible-light-activated MMs and conventional antifungals, C. albicans; type: cell-based, Candida albicans (ATCC 18804); details: Candida albicans, read-out: MIC of antifungal agent
How it was run: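 C. albicans suspensions (~10^4 CFU/mL in saline, CLSI) incubated 30 min in the dark with MMs, then irradiated with stirring at 405 nm, 292 mW cm^−2 for 5 min (87.6 J cm^−2). Cells then grown in MOPS-buffered RPMI 1640 (pH 7.0) at 30 °C for 48 h; MIC is lowest concentration with no visible growth; conventional antifungals tested likewise.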

T. rubrum = experiment: MIC, MMs and antifungals, T. rubrum; type: cell-based, Trichophyton rubrum (ATCC 10218); details: Trichophyton rubrum, read-out: MIC of antifungal agent
Method: Cell suspensions for susceptibility testing (MMs and conventional antifungals) were prepared per the Clinical & Laboratory Standards Institute (CLSI) guidelines (CLSI, 2017; CLSI, 2008). Before testing, yeasts (C. albicans and S. cerevisiae) were sub-cultured in Sabouraud Dextrose Agar-Emmons Modification (SDAE) plates and grown for 24 h at 30 °C. Five independent colonies from 24-h-old plates were collected and diluted to ~10^4 colony forming units (CFU) per mL in sterile saline (CLSI, 2017). Molds (A. fumigatus and the dermatophytes T. rubrum and M. gypseum) were sub-cultured on SDAE medium and incubated for 7 days at 28 °C. Conidia were recovered by covering the plates with sterile distilled water and scraping the colonies. The suspensions were filtered (8-μm pore size) and diluted in saline to ~10^4 CFU mL^−1 (Santos and Hamdan, 2005).
After a 30-min incubation in the dark, cell suspensions were transferred to small, sterilized glass beakers, which were then placed in a water bath. Each sample was irradiated with 405-nm light at 292 mW cm^−2 for 5 min, corresponding to a light dose of 87.6 J cm^−2, determined using an S415C thermal power sensor (Thorlabs, Newton, MA, USA). During irradiation, the cell suspensions were agitated with a small metal stirrer. […]

[3] = test system: biofilms of P. aeruginosa and S. aureus; experiment: Biofilm total bacterial cell number (acridine orange); type: cell-based, Pseudomonas aeruginosa, Staphylococcus aureus; details: 2×MIC, vs untreated controls
Method: (§4) This combination of methods is effective at evaluating the antibiofilm potential of chemicals (Stiefel et al., 2016). P. aeruginosa and S. aureus were grown overnight in tryptic soy broth (TSB) medium. The overnight cultures were diluted in 1:100 in fresh media and 100 μL aliquots were distributed in a 96-well plate. After 24 h of static growth at 37 ° C, planktonic cells were removed by inverting the plate onto a stack of paper towels, and the biofilm was washed three times with PBS. After washing, MM 1, MM 5, or MM 6 were added at 2×MIC to the biofilm and incubated statically in the dark for 60 min. The biofilm was then irradiated for 15, 30, or 45 min at 146 mW cm2. For the determination of the total bacterial number, acridine orange solution (2% in H2O) diluted 1:100 in Walpole's buffer (27.2 g L-1 sodium acetate trihydrate, adjusted to pH 4 with glacial acetic acid) was added to the wells.

[4] = test system: biofilms of P. aeruginosa and S. aureus; experiment: Biofilm metabolically active cells (ATP); type: cell-based, Pseudomonas aeruginosa, Staphylococcus aureus; details: 2×MIC, antibiotics 45 min, MMs 15 min + light, vs untreated
Method: as §4
For quantification of viable cells in biofilms, following the addition of 100 μL […] of TSB to each well, bacteria were detached from the biofilm by thorough mixing, after which […] of BacTiter-Glo™ reagent, prepared according to the manufacturer's instructions, was added to each well.

S. aureus [5] = experiment: G. mellonella burn wound infection model, S. aureus; type: in vivo, Galleria mellonella; details: S. aureus-infected G. mellonella, 1×MIC
Method: as §1

S. aureus [6] = experiment: MIC, S. aureus; type: cell-based, Staphylococcus aureus; details: Staphylococcus aureus, read-out: Antibiotic MIC
Method: as §2, §3

Molecule: Polymyxin B [reference compound]
- mortality after 7 days (A. baumannii [1]): 69%
- Antibiotic MIC (A. baumannii [2]): 0.125 μg per mL

Molecule: Cc1cc(C2CCCCC2)n(O)c(=O)c1 [Ciclopirox (CPX), Ciclopirox]
- MIC (C. albicans): 1 µg/mL
- MIC (T. rubrum): 0.5 µg/mL

Molecule: NC[C@H]1O[C@H](O[C@H]2[C@H](O)[C@@H](O[C@H]3O[C@H](CO)[C@@H](O)[C@H](N)[C@H]3O)[C@H](N)C[C@@H]2N)[C@H](N)C[C@@H]1O [Tobramycin]
- reduction in total bacterial cell number in biofilm [3]: up to 43%
- reduction in metabolically active cells in biofilm [4]: 27%
- mortality after 7 days (S. aureus [5]): 33%
- MIC (S. aureus [6]): 4 µg/mL (≈ 8.56 µM)
